Measurements taken from patent publication US10414768B2, “Compounds for treating cystic fibrosis” (CENTRE NATIONAL DE LA RECHERCHE SCIENTIFIQUE (CNRS), priority 2014, dated 2019).

Target: T1, F508del-CFTR (Homo sapiens, UniProt P13569, DEL508-508)
T1 construct: expressed in transfected cells; host or cells: HeLa cells (spTCF-ΔF), selected with Zeocin
Assay: Iodide (125I) efflux from HeLa cells expressing F508del-CFTR
Assay type: cell-based
Details: activators Fsk 10 μM + Gst 30 μM, relative to VX809 normalized at 100%, untreated cells 3.6%
Description: Pharmacology, chemicals and reagents. The CFTR activator forskolin and potentiator genistein (Illek et al., 1995) were purchased from LC Laboratories (PKC Pharmaceuticals, Woburn, Mass.). We purchased DIDS (5-Isothiocyanato-2-[2-(4-isothiocyanato-2-sulfophenyl)ethenyl]benzene-1-sulfonic acid) and VX809 (3-(6-(1-(2,2-difluorobenzo[d][1,3]dioxol-5-yl)cyclopropanecarboxamido)-3-methylpyridin-2-yl)benzoic acid) from Selleckchem (Houston, USA). Stock solutions of F (10 mM), G (30 mM), CFTRinh-172 (10 mM), VX809 (10 mM), were prepared in DMSO. We prepared stock solution of iminosugars, miglustat and IsoLAB ([1,4-dideoxy-2-hydroxymethyl-1,4-imino-L-threitol]) dissolved in water (100 mM) before further dilution. Methods Cell culture. HeLa cells expressing wild-type CFTR (spTCF-wt) or F508del-CFTR (spTCF-ΔF) were cultured in Dulbecco's modified Eagle's medium+GlutaMAX™-I (Invitrogen) supplemented with 8% (v/v) fetal bovine serum (FBS), 1% (v/v) penicillin/streptomycin and were selected using Zeocin (50 μg/mL). Both cell lines were grown in standard culture conditions (37° C., 5% C02). Cells were plated in 35 mm plastic dishes for whole-cell patch-clamp recordings and western blot analysis and in 96-well plates for cytotoxicity assay. For all cell culture, culture media were renewed every 2 days. Western Blot analysis. Cell lysates (10 mM Tris, 1% Nonidet P-40, 0.5% sodium deoxycholate, pH 7.5) were separated 72 h after seeding for HeLa cells by 5% SDS-PAGE (50 μg of protein/well). After saturation, nitrocellulose membrane was incubated overnight at 4° C. in phosphate-buffered saline, 0.1% Tween 20 with 1 μg/ml mouse anti-CFTR monoclonal antibody (clone MAB3480; Chemicon International, Millipore Bioscience Research Reagents, Temecula, Calif.). After washing, goat peroxidase-conjugated anti-mouse IgG (1:10 000; Sigma-Aldrich) was used as secondary antibody. CFTR was visualized by chemiluminescence with ECL Western blotting detection reagent (GE Healthcare, Buckinghamshire, UK). Iodide efflux. CFTR chloride channel activity was assayed by measuring the rate of iodide (^125I) efflux from living cells. All experiments were performed with a MultiPROBE® IIex robotic liquid handling system (Perkin Elmer Life Sciences, Courtaboeuf, France). At the beginning of each experiment, cells were washed twice with efflux buffer containing (in mM) 136.9 NaCl, 5.4 KCl, 0.3 KH2PO4, 0.3 NaH2PO4, 1.3 CaCl2, 0.5 MgCl2, 0.4 MgSO4, 5.6 glucose and 10 HEPES, pH 7.4. Cells were incubated in efflux buffer containing Na^125I (1 μCi Na^125I/ml, NEN, Boston, Mass.) during 1 h at 37° C., then washed with efflux medium to remove extracellular ^125I. The loss of intracellular ^125I was determined by removing the medium with efflux buffer every 1 min for up to 10 min. The first three aliquots were used to establish a stable baseline in efflux buffer alone. A medium containing the activators of CFTR (Fsk 10 μM+Gst 30 μM) and the appropriate drug was used for the remaining aliquots. Residual radioactivity was extracted with 0.1 N NaOH/0.1% SDS, and determined using a Packard Cobra™ II gamma counter (Perkin Elmer life Sciences, Courtaboeuf, France). The fraction of initial intracellular ^125I lost during each time point was collected and time-dependent rates of ^125I efflux calculated from: ln (^125It1/^125It2)/(t1−t2) where ^125It is the intracellular ^125I at time t, and t1 and t2 successive time points. Curves were constructed by plotting rate of 125I versus time. All comparisons were based on maximal values for the time-dependent rates (k=peak rates, min−1) excluding the points used to establish the baseline (kpeak−kbasal, min^−1), and histograms were presented as percentage of activation. Time dependence. Time dependence of the compounds was assayed by measuring the time necessary for an optimal correction of the protein F508del-CFTR. […]

T1 sequence (P13569 with tags, fused parts or gaps DEL508-508): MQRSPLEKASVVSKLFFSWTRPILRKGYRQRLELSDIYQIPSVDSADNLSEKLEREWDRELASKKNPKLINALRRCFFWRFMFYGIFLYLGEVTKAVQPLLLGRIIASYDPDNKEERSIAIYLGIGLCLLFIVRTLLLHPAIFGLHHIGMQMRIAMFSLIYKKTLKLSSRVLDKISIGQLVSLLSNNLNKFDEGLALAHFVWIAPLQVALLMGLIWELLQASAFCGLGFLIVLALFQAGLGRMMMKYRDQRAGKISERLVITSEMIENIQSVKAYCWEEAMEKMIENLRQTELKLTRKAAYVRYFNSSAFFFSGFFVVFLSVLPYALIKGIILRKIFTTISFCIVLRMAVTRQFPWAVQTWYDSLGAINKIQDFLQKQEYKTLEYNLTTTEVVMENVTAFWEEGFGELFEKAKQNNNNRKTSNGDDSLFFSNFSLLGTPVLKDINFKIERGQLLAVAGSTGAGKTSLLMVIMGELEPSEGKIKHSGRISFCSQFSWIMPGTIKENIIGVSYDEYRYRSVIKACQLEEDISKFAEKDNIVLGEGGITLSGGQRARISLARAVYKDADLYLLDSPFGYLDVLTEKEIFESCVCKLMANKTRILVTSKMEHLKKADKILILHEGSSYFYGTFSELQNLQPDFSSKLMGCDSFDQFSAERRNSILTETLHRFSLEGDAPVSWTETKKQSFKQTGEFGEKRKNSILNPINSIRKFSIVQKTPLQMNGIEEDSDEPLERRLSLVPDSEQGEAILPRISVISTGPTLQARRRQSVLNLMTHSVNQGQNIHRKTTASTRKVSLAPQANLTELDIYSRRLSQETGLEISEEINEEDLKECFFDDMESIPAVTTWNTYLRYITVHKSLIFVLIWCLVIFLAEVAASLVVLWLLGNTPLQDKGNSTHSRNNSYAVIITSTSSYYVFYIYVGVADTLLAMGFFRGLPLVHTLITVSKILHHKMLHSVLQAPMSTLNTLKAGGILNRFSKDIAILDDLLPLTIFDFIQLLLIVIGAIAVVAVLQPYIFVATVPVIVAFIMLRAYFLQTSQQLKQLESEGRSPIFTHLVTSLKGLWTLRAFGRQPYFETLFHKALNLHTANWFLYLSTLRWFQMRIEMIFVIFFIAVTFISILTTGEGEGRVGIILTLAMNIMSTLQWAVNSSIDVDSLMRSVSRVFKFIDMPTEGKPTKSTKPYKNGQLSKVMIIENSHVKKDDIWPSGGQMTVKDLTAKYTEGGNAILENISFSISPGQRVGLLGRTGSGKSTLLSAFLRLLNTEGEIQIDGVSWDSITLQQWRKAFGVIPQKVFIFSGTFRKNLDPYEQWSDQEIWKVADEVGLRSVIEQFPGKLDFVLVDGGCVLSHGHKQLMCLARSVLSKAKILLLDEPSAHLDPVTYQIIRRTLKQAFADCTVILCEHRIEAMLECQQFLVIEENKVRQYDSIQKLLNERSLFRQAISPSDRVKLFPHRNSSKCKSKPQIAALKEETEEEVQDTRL

Row | Emax (HeLa) [%] | SMILES | Emax [%]
1 | 10 to 35 | COc1ccc(CNc2nc(Cl)nc3c2ncn3C2CCCCO2)cc1 (stereo not drawn) [Compound 97, 2-chloro-N-(4-methoxybenzyl)-9-(tetrahydro-2H-pyran-2-yl)-9H-purin-6-amine] | 
2 | 10 to 35 | COc1ccc(CNc2nc(OCCc3ccccc3)nc3c2ncn3C2CCCCO2)cc1 (stereo not drawn) [Compound 98, N-(4-methoxybenzyl)-2-phenethoxy-9-(tetrahydro-2H-pyran-2-yl)-9H-purin-6-amine] | 
3 | 35 to 60 | Nc1nc(N)c2ncn(-c3ccc(CO)cc3)c2n1 [Compound 61, (4-(2,6-diamino-9H-purin-9-yl)phenyl)methanol] | 
4 | 35 to 60 | NC(=O)c1ccc(Cn2cnc3c(N[C@@H](CO)C(=O)O)nc(Cl)nc32)cc1 [Compound 119, (S)-2-((9-(4-carbamoylbenzyl)-2-chloro-9H-purin-6-yl)amino)-3-hydroxypropanoic acid] | 
5 | 10 to 35 | O=[N+]([O-])c1c(O)nc(O)nc1Cl [Compound 103, 6-chloro-5-nitropyrimidine-2,4-diol] | 
6 | ≥ 60 | NC(=O)c1ccc(Nc2ccncc2[N+](=O)[O-])cc1 [Compound 105, 4-((3-nitropyridin-4-yl)amino)benzamide] | 
7 | 10 to 35 | NC(=O)c1ccc(Nc2ncnc(Cl)c2[N+](=O)[O-])cc1 [Compound 106, 4-((6-chloro-5-nitropyrimidin-4-yl)amino)benzamide] | 
8 | ≥ 60 | NC(=O)c1ccc(-n2cnc3c(NCC(=O)O)nc(Cl)nc32)cc1 [Compound 23, 2-((9-(4-carbamoylphenyl)-2-chloro-9H-purin-6-yl)amino)acetic acid] | 
9 | 10 to 35 | C[C@H](Nc1nc(Cl)nc2c1ncn2-c1ccccc1)C(=O)OC(C)(C)C [Compound 81, (S)-tert-butyl 2-((2-chloro-9-phenyl-9H-purin-6-yl)amino)propanoate] | 
10 | 10 to 35 | COc1ccc(CNc2nc(Cl)nc3[nH]cnc23)cc1 [Compound 9, 2-chloro-N-(4-methoxybenzyl)-9H-purin-6-amine] | 
11 | ≥ 60 | NC(=O)c1ccc(Nc2c[n+]([O-])ccc2[N+](=O)[O-])cc1 [Compound 114, 3-((4-carbamoylphenyl)amino)-4-nitropyridine 1-oxide] | 
12 | 35 to 60 | Cc1ccc(Nc2ncnc(Cl)c2N)cc1 [Compound 109, 6-chloro-N4-(p-tolyl)pyrimidine-4,5-diamine] | 
13 | 10 to 35 | COc1ccc(-n2cnc3c(O)nc(N)nc32)cc1OC [Compound 91, 2-amino-9-(3,4-dimethoxyphenyl)-9H-purin-6-ol] | 
14 | 35 to 60 | Cc1nc(Cl)c(N)c(Nc2ccc(C(N)=O)cc2)n1 [Compound 65, 4-((5-amino-6-chloro-2-methylpyrimidin-4-yl)amino)benzamide] | 
15 | ≥ 60 | Nc1c(Cl)ncnc1Cl [Compound 47, 4,6-dichloropyrimidin-5-amine] | 
16 | 10 to 35 | Nc1c(Cl)ncnc1Nc1ccc(F)cc1 [Compound 110, 6-chloro-N4-(4-fluorophenyl)pyrimidine-4,5-diamine] | 
17 | 35 to 60 | Nc1nc(NCCCc2cccc(F)c2)nc2[nH]cnc12 [Compound 128, N2-(3-(3-fluorophenyl)propyl)-9H-purine-2,6-diamine] | 
18 | 10 to 35 | NC(=O)c1ccc(Sc2ncnc(Cl)c2N)cc1 [Compound 108, 4-((5-amino-6-chloropyrimidin-4-yl)thio)benzamide] | 
19 | 35 to 60 | COc1ccc(CNc2nc(NCCCCc3ccccc3)nc3[nH]cnc23)cc1 [Compound 58, N6-(4-methoxybenzyl)-N2-(4-phenylbutyl)-9H-purine-2,6-diamine] | 
20 | 10 to 35 | NC(=O)c1ccc(-n2c(=O)[nH]c3c(Cl)ncnc32)cc1 [Compound 122, 4-(6-chloro-8-oxo-7H-purin-9(8H)-yl)benzamide] | 

Row | Emax (HeLa) [%] | SMILES | Emax [%]
21 |  | COC(=O)c1ccc(-n2cnc3c(OC(=O)NC(c4ccccc4)c4ccccc4)nc(NC(C)=O)nc32)cc1 [Compound 30, methyl 4-(2-acetamido-6-((benzhydrylcarbamoyl)oxy)-9H-purin-9-yl)benzoate] | 35 to 60
22 | ≥ 60 | NC(=O)c1ccc(-n2cnc3c(NC(CO)CO)nc(Cl)nc32)cc1 [Compound 21, 4-(2-chloro-6-((1,3-dihydroxypropan-2-yl)amino)-9H-purin-9-yl)benzamide] | 
23 | 10 to 35 | COC(=O)c1ccc(-n2cnc3c(Cl)nc(Cl)nc32)cc1 [Compound 90, methyl 4-(2,6-dichloro-9H-purin-9-yl)benzoate] | 
24 | ≥ 60 | Nc1nc(Cl)c(N)c(Cl)n1 [Compound 48, 4,6-dichloropyrimidine-2,5-diamine] | 
25 | ≥ 60 | C[C@H](Nc1nc(Cl)nc2c1ncn2-c1ccc(C(N)=O)cc1)C(=O)OC(C)(C)C [Compound 27, (S)-tert-butyl 2-((9-(4-carbamoylphenyl)-2-chloro-9H-purin-6-yl)amino)propanoate] | 
26 | ≥ 60 | NC(=O)c1ccc(-c2nc(N)nc3[nH]cnc23)cc1 [Compound 113, 4-(2-amino-9H-purin-6-yl)benzamide] | 
27 | 35 to 60 | CC(=O)Nc1ccc(Nc2ncnc(Cl)c2[N+](=O)[O-])cc1 [Compound 120, N-(4-((6-chloro-5-nitropyrimidin-4-yl)amino)phenyl)acetamide] | 
28 | ≥ 60 | NC(=O)c1ccc(-n2nnc3c(Cl)ncnc32)cc1 [Compound 33, 4-(7-chloro-3H-[1,2,3]triazolo[4,5-d]pyrimidin-3-yl)benzamide] | 
29 | 10 to 35 | COc1ccc(CCNc2nc(NCc3ccc(OC)cc3)c3ncn(-c4ccccc4)c3n2)cc1 [Compound 85, N6-(4-methoxybenzyl)-N2-(4-methoxyphenethyl)-9-phenyl-9H-purine-2,6-diamine] | 
30 | 10 to 35 | COc1ccc(CNc2nc(Cl)nc3c2ncn3-c2ccc(C(N)=O)cc2)cc1 [Compound 25, 4-(2-chloro-6-((4-methoxybenzyl)amino)-9H-purin-9-yl)benzamide] | 
31 | 35 to 60 | NC(=O)c1ccc(Nc2ncnc(N)c2N)cc1 [Compound 59, 4-((5,6-diaminopyrimidin-4-yl)amino)benzamide] | 
32 | 10 to 35 | C[C@H](Nc1nc(NCCCc2ccccc2)nc2c1ncn2-c1ccccc1)C(=O)OC(C)(C)C [Compound 82, (S)-tert-butyl 2-((9-phenyl-2-((3-phenylpropyl)amino)-9H-purin-6-yl)amino)propanoate] | 
33 | ≥ 60 | Nc1ncnc(N)c1N [Compound 102, pyrimidine-4,5,6-triamine] | 
34 | 10 to 35 | NC(=O)c1ccc(-n2cnc3cnc(N)nc32)cc1 [Compound 63, 4-(2-amino-9H-purin-9-yl)benzamide] | 
35 | 35 to 60 | Nc1cncnc1Cl [Compound 111, 4-chloropyrimidin-5-amine] | 
36 | 10 to 35 | NS(=O)(=O)c1ccc(-n2nnc3c(Cl)ncnc32)cc1 [Compound 64, 4-(7-chloro-3H-[1,2,3]triazolo[4,5-d]pyrimidin-3-yl)benzenesulfonamide] | 
37 | 10 to 35 | COc1ccc(CNc2nc(OCCc3ccccc3)nc3[nH]cnc23)cc1 [Compound 12, N-(4-methoxybenzyl)-2-phenethoxy-9H-purin-6-amine] | 
38 | 10 to 35 | C[C@H](Nc1nc(Cl)nc2c1ncn2Cc1ccc(C(N)=O)cc1)C(=O)OC(C)(C)C [Compound 121, (S)-tert-butyl 2-((9-(4-carbamoylbenzyl)-2-chloro-9H-purin-6-yl)amino)propanoate] | 
39 | 10 to 35 | Nc1nc(Cl)nc2c1ncn2Cc1ccccc1 [Compound 2, 9-benzyl-2-chloro-9H-purin-6-amine] | 
